The results in this text go back to ChEMBL document CHEMBL2439989 (Bioorg Med Chem Lett, 2013).

For data set [1], the target named is 5-hydroxytryptamine receptor 7 (Homo sapiens, UniProt P34969). The experiment in a line: Displacement of [3H]5-CT from human 5HT7A receptor expressed in HEK293 cells after 60 mins. It counts as cell-based. For orientation: In a radioligand displacement assay an active substance lowers the binding of a labelled ligand.
The subject of data set [2] is Mus musculus. The experiment in a line: Elimination half life in CD1 mouse assessed as 1-[2-(4-methoxyphenyl)phenyl]piperazine at 10 mg/kg, ip qd by RP-HPLC analysis. It counts as ADME, organism-based. Details: dose 10 mg/kg, route intraperitoneal. To be noted: in vivo.
The nature of data set [3]: Elimination half life in CD1 mouse at 10 mg/kg, ip qd by RP-HPLC analysis. Details: dose 10 mg/kg, route intraperitoneal. Format: ADME, organism-based. To be noted: in vivo, read-out: beta t1/2.
Data set [4] deals with Brain. Description: Cmax in brain of CD1 mouse assessed as 1-[2-(4-methoxyphenyl)phenyl]piperazine at 10 mg/kg, ip qd after 30 mins by RP-HPLC analysis. Format: ADME, organism-based. Details: dose 10 mg/kg, route intraperitoneal. To be noted: in vivo, 0.5 h.
The nature of data set [5]: Ratio of AUC from brain to plasma of CD1 mouse at 10 mg/kg, ip qd measured within 120 mins by RP-HPLC analysis. The note with it: read-out: Ratio AUC. Details: dose 10 mg/kg, route intraperitoneal. Format: ADME, organism-based.
Data set [6] in a line: Cmax in brain of CD1 mouse at 10 mg/kg, ip qd after 30 mins by RP-HPLC analysis. Format: ADME, organism-based. Details: dose 10 mg/kg, route intraperitoneal.
The nature of data set [7]: Cmax in plasma of CD1 mouse at 10 mg/kg, ip qd after 15 mins by RP-HPLC analysis. Details: dose 10 mg/kg, route intraperitoneal. Format: ADME, organism-based.
Data set [8] in a line: Efflux ratio of apparent permeability from basolateral to apical side over apical to basolateral side in human Caco2 cells at 1 to 100 uM after 120 mins by UV spectroscopic analysis. Format: ADME, cell-based. The note with it: Caco-2. (In general: Passage across Caco-2 layers is used to estimate intestinal permeability.)
Data set [9] can be described thus: Metabolic stability in rat liver S9 fractions at 10 uM after 30 mins by RP-HPLC analysis. It counts as ADME, subcellular, Liver S9 fraction. The note with it: read-out: Stability.
Data set [10] is described as follows: (§1) Binding affinity to sigma 2 receptor (unknown origin) by radioligand binding assay. Details: species or system Homo sapiens.
The species entered for data set [11] is Homo sapiens. The data set is described as §1. The note with it: concentration not given here.
Data set [12] has as its target Sigma non-opioid intracellular receptor 1 (Homo sapiens, UniProt Q99720). Description: Binding affinity to sigma 1 receptor (unknown origin) by radioligand binding assay. The note with it: for inhibition: concentration not given here.
In data set [13] the target is T1, Adrenergic receptor alpha-1 (Rattus norvegicus, UniProt P15823+P23944+P43140).
T1 sequence (P15823 whole entry): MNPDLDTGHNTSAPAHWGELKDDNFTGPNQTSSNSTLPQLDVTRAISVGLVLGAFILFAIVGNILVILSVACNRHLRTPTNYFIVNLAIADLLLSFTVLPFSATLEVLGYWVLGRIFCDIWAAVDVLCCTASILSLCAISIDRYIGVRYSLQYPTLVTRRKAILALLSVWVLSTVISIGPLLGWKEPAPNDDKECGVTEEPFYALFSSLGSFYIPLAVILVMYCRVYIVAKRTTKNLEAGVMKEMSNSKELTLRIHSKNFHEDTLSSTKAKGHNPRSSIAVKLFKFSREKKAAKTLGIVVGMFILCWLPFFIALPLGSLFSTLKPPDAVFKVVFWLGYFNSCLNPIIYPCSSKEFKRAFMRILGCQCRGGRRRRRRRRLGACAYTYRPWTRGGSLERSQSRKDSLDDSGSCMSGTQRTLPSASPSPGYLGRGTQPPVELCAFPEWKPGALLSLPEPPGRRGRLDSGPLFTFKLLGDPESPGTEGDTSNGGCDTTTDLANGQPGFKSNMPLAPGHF
T1 sequence (P23944 whole entry): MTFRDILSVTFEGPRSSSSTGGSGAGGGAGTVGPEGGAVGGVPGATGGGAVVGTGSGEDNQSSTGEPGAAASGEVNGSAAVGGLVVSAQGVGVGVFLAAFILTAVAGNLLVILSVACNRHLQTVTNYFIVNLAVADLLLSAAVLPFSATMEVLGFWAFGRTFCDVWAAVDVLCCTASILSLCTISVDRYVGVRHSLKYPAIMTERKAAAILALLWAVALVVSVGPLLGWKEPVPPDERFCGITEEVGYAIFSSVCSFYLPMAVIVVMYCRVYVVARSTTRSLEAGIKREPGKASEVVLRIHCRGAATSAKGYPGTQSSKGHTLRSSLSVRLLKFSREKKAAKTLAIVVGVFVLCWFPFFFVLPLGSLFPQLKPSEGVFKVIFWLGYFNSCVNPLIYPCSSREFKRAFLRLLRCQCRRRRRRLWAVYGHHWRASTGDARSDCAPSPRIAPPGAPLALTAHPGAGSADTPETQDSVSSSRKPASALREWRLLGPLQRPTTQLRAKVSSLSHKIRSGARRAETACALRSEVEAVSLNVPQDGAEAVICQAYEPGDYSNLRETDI
T1 sequence (P43140 whole entry): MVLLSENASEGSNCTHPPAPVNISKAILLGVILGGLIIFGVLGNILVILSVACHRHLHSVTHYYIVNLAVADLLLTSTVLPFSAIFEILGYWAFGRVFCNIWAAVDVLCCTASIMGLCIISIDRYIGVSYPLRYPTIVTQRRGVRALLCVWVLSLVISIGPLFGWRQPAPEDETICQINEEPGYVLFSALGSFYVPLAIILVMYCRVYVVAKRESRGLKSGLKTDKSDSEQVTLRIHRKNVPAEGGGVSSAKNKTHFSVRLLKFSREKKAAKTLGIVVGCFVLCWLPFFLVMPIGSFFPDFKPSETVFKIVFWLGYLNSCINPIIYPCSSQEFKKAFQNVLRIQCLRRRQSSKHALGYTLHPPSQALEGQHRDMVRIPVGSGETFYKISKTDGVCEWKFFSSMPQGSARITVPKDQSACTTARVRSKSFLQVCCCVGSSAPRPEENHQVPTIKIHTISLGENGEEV
The experiment in a line: Displacement of [3H]-prazosin from alpha1 adrenergic receptor in rat cerebral cortex membranes after 50 mins. Format: cell membranes, Membrane.

For data set [14], the target named is T2, 5-hydroxytryptamine receptor 1A (Homo sapiens, UniProt P08908).
T2 sequence (P08908 whole entry): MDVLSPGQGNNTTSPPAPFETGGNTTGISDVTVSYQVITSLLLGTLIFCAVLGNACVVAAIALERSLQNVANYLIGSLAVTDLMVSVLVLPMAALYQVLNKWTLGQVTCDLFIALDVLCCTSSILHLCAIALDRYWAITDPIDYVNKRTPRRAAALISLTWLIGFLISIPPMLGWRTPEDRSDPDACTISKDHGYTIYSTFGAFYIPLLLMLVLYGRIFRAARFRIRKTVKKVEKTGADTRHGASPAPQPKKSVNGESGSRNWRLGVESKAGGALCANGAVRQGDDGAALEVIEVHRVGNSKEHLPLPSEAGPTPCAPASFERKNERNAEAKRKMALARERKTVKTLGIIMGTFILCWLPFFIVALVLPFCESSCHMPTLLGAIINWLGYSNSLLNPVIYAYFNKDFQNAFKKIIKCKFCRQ
The experiment in a line: Displacement of [3H]-8-OH-DPAT from human recombinant 5HT1A receptor expressed in HEK293-EBNA cells after 120 mins. It counts as cell-based.

A short description of data set [15]: Half life in mouse brain at 10 to 30 mg/kg, ip. It counts as ADME, organism-based. Details: dose 10-30 mg/kg, route intraperitoneal.
Data set [16] has as its target T2, 5-hydroxytryptamine receptor 1A. Description: Displacement of [3H]-8-OH-DPAT from human 5HT1A receptor after […].

Structures are written as SMILES. Some results are limits rather than exact numbers.

Sigma non-opioid intracellular receptor 1, sequence (Q99720 whole entry): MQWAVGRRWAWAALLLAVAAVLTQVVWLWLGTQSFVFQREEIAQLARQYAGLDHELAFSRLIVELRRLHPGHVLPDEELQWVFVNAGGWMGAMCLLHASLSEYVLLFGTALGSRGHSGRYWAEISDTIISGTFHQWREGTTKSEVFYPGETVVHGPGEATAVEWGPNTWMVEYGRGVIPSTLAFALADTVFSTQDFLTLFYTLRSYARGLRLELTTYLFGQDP
5-hydroxytryptamine receptor 7, sequence (P34969 whole entry): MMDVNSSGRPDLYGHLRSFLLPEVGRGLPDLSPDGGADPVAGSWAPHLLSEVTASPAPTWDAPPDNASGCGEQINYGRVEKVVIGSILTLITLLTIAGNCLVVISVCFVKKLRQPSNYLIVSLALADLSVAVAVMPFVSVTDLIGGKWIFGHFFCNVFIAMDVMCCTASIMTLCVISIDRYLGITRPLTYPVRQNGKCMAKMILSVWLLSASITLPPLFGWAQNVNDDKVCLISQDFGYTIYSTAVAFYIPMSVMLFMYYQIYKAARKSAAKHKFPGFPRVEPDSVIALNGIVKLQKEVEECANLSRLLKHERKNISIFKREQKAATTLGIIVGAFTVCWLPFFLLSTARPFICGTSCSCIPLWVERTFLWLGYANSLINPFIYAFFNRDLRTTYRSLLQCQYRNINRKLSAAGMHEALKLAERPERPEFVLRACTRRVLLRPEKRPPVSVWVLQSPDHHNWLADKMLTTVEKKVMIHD

For the molecule `COc1ccc(-c2ccccc2N2CCN(CCOCCC(=O)NCc3cccnc3)CC2)cc1`, the Ki in data set [1] was 23.8 nM; in [10], more than 10000 nM; in [12], more than 5000 nM; in data set [13] it was 393 nM; in data set [14] it was 1270 nM. Also, in data set [2], the “beta t1/2” value came to 2 h. Also, in data set [3], the half-life turned out to be 0.733 h. The Cmax is 484 ng/g in [4], 308 ng/g in data set [6] and 702 ng/mL in data set [7]. Besides, the Kp at 2 h in data set [5] amounted to 1.3. Moreover, the efflux ratio at 2 h, up to 100 µM in data set [8] is 3.3. Also, in data set [9], the remaining at 0.5 h, 10 µM stood at 82%. Moreover, the inhibition in data set [11] came out at 38%; in data set [12] it was 36%.
On to `COc1ccc(-c2ccccc2N2CCN(CCOCCC(=O)NCc3ccccn3)CC2)cc1`, for which the Ki is 23.5 nM in [1]; more than 10000 nM in data set [10]; more than 5000 nM in data set [12]; 295 nM in data set [13]; 918 nM in data set [14]. Moreover, in data set [9], the remaining at 0.5 h, 10 µM is 78%. The inhibition in [11] turned out to be 39%; in data set [12], 27%.
In the case of `COc1ccc(-c2ccccc2N2CCN(CCCCCC(=O)NCc3ccccn3)CC2)cc1`, the Ki was 15.2 nM in [1], 3480 nM in data set [10], 11.4 nM in [13] and 35 nM in data set [14]. For the same molecule, in data set [9], the remaining at 0.5 h, 10 µM was found to be 69%.
Regarding `COc1ccc(-c2ccccc2N2CCN(CCCCCC(=O)NCc3ccncc3)CC2)cc1`, the Ki was 11.2 nM in data set [1]; 356 nM in data set [10]; more than 5000 nM in data set [12]; 30.5 nM in [13]; 239 nM in data set [14]. Further, the remaining at 0.5 h, 10 µM in data set [9] was found to be 76%. In addition, the inhibition in data set [12] was 30%.
On to `COc1ccc(-c2ccccc2N2CCN(CCOCCC(=O)NCc3ccncc3)CC2)cc1`, for which the Ki was 18 nM in [1]; more than 10000 nM in data set [10]; more than 5000 nM in [12]; 193 nM in data set [13]; 877 nM in [14]. Also, in data set [9], the remaining at 0.5 h, 10 µM turned out to be 82%. In addition, the inhibition came out at 45% in data set [11] and 33% in [12].
On to `N#Cc1ccc(CNC(=O)CCCCCN2CCN(c3ccccc3-c3ccccc3)CC2)cc1`, for which the half-life in data set [15] worked out at 1.15 h. Moreover, in [9], the remaining at 0.5 h, 10 µM worked out at 40%. Besides, the inhibition constant (Ki) in [10] was 4200 nM; in data set [12] it was more than 5000 nM; in [13] it was 22.6 nM; in [16], 379 nM. The molecule also yielded an inhibition in [12] of 48%.
For `COc1ccc(-c2ccccc2N2CCN(CCCCCC(=O)NCc3cccnc3)CC2)cc1`, the Ki in data set [1] came to 12.7 nM; in [10], 638 nM; in data set [13], 38.3 nM; in data set [14], 80 nM. Besides, the efflux ratio at 2 h, up to 100 µM in data set [8] was 4.5. Moreover, the remaining at 0.5 h, 10 µM in data set [9] came to 85%.

The Ki is a dissociation constant, usually derived from enzyme kinetics or from competition with a known ligand. For orientation: Cmax means the highest concentration seen after dosing. Broadly, the efflux ratio is a quotient of directional permeabilities that is used to spot active efflux. Broadly, the inhibition is the percentage by which the read-out fell short of the control.
